In patent US20240270715A1, “INHIBITORS OF TRANSGLUTAMINASES” (ZEDIRA GMBH, priority 2021, published 2024):
Read-outs that look alike come from different tables or passages of the source.

Tests used:
[1] = molecular target: T1, recombinant human transglutaminase 2 (Homo sapiens, UniProt P21980); experiment: Transglutaminase assay: incorporation of dansylcadaverine into dimethylcasein (DCC-assay); format: biochemical
T1 sequence (P21980 1-687): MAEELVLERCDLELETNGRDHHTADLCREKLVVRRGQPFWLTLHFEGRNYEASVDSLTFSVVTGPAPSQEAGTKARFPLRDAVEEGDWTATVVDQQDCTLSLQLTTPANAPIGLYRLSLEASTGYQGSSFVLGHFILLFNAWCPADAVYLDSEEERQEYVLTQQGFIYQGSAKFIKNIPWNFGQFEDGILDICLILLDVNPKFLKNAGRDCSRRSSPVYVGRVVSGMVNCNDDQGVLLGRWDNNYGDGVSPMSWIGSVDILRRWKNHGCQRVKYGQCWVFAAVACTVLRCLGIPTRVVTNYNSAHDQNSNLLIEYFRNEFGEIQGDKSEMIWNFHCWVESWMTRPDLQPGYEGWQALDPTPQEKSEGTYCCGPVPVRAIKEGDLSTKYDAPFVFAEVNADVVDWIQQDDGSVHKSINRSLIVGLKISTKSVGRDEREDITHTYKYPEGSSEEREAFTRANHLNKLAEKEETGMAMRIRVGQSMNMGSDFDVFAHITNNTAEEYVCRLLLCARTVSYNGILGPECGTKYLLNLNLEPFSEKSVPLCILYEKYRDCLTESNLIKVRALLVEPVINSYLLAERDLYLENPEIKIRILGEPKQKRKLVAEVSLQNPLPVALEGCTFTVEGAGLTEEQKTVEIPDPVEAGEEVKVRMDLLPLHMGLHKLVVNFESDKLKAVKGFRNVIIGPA
Method: To illustrate the advantage of branched alkyl moieties over aromatic moieties, we refer to reference compounds Ref. 2 (ZED1227, U.S. Pat. No. 9,434,763 B2) and Ref. 3 (A8, ZED1047). Inhibition data were determined using the classical fluorescent transamidation assay (dansylcadaverine incorporation into methylated casein, DCC-assay) as described [Büchold, C.; Hils, M.; Gerlach, U.; Weber, J.; Pelzer, C.; Heil, A.; Aeschlimann, D.; Pasternack, R. Features of ZED1227: The First-In-Class Tissue Transglutaminase Inhibitor Undergoing Clinical Evaluation for the Treatment of Celiac Disease. Cells 2022, 11, 1667. https://doi.org/10.3390/cells11101667]. Casein is one of the best known high molecular weight (24 kDa) protein substrates for transglutaminases. Please note, the IC50 value of Ref. 3 (A8) published in U.S. Pat. No. 9,434,763 B2 cannot be compared to the present data, relying on a fluorogenic isopeptidase assay.
To this extent, inhibition data were determined using the classical fluorescent transamidation assay (dansylcadaverine incorporation into methylated casein, DCC-assay) as described in Büchold et al. [Büchold, C.; Hils, M.; Gerlach, U.; Weber, J.; Pelzer, C.; Heil, A.; Aeschlimann, D.; Pasternack, R. Features of ZED1227: The First-In-Class Tissue Transglutaminase Inhibitor Undergoing Clinical Evaluation for the Treatment of Celiac Disease. Cells 2022, 11, 1667. https://doi.org/10.3390/cells11101667]. Casein is one of the best known high molecular weight (24 kDa) protein substrates for transglutaminases. Inhibition data of the inventive compounds was compared with inhibition of compounds disclosed in U.S. Pat. No. 9,434,763 B2, particularly, compound A8, which is denoted herein as Reference 3. It is noteworthy that the IC50 values of compounds A8 published in U.S. Pat. No. 9,434,763 B2 and E16 from U.S. Pat. No. 11,072,634 B2 cannot be compared to the present data, relying on a fluorogenic isopeptidase assay.
For the determination of potency of inhibitors against tissue transglutaminase, the incorporation of dansylcadaverine into dimethylcasein (Zedira product T036, Lorand et al., Anal Biochem, 1971, 44:221-31) was measured using recombinant human transglutaminase 2 (Zedira Product T022).
The tissue transglutaminase is diluted in buffer (50 mM Tris-HCl, 7.5 mM CaCl2, 150 mM NaCl, pH=7.4). The final concentration of TG2 in the assay is 10 nM.
A 10 mM inhibitor stock solution is prepared in DMSO, and from this a serial 1:2-fold dilution series is prepared also in DMSO. Each of the initial dilutions is subsequently diluted 1:50-fold with buffer (50 mM Tris-HCl, 7.5 mM CaCl2, 150 mM NaCl, pH=7.4) to yield the final working dilutions containing 2% (v/v) DMSO. 15 μl of inhibitor working dilution are added per well of a 96 well microtiter plate. As control, 15 μl of a 2% (v/v) DMSO solution prepared using the buffer mentioned above are added per well.
Immediately before starting the assay, 600 μl transglutaminase working solution are added to 11.4 ml assay buffer (50 mM Tris-HCl, 10 mM CaCl2, 10 mM glutathione, 2.5% glycerol, 16.7 μM dansylcadaverine, 4 μM N,N-dimethylcasein, 200 mM NaCl, pH=8.0). 285 μl of this reaction mix are added per well containing the inhibitor.
Increase in fluorescence is measured using λex=330 nm and λemG=500 nm at […] for 30 min. A slope of the increase in fluorescence between 20 and 30 min is calculated for determination of the IC50 value (inhibitor concentration at which 50% of the initial activity is blocked).
Analysis of enzymatic activity is performed by calculation of the slope of an increase in fluorescence intensity. IC50 values are calculated by plotting the enzymatic activity (as percentage from control containing 2% DMSO instead of inhibitor) against the inhibitor concentration. IC50 is defined as the inhibitor concentration blocking 50% of initial enzyme activity.

[2] = Log D by shake flask method (octanol / PBS pH 7.4, HPLC); format: physicochemical; settings: octanol / PBS pH 7.4, shake flask; read-out: logD
Method: In order to classify the inventive compounds according to their lipophilicity, Log D values (distribution coefficient) were determined by means of the well-established shake flask method, measuring the partition of a compound between an octanol and phosphate-buffered saline (PBS, pH 7.4) by HPLC.
Compounds with a moderate lipophilicity (Log D values from 0 to 3) are usually advantaged for oral absorption, being in balance between solubility and permeability. However, sophisticated formulation of a compound might improve oral bioavailability for highly lipophilic compounds.

[3] = Caco-2 permeability assay (CacoReady kit); format: in vitro ADME; settings: human
Method: Permeability coefficients (Papp values) were obtained from Caco-2 barrier studies predicting oral/intestinal bioavailability of the tested compounds. The assays were performed by using CacoReady™ ready-to-use kits from ReadyCell according to the manufacturers protocol.

[4] = DCC-assay, values in text, read-out: IC50
[5] = recombinant human TG2 10 nM, dansylcadaverine/dimethylcasein, read-out: IC50 TG2

| SMILES | fold more potent compared to Ref. 3 ([1]; DCC-assay, ratio of IC50) [fold] | IC50 [1, 4] [nM] | IC50 [1, 5] [nM] | logD [2] | Papp [3] [×10⁻⁶ cm/s] |
| --- | --- | --- | --- | --- | --- |
| CCC(CC)CNC(=O)Cn1cccc(NC(=O)[C@H](CC/C=C/C(=O)OC)NC(=O)c2cncn2C)c1=O [Ref. 2, reference compound] | 80 | 53 | < 150 | 1 to 3 | < 1 |
| CCNC(=O)C(=O)CC[C@H](NC(=O)c1cccnc1)C(=O)Nc1cccn(CC(=O)NC23CC4CC(CC(C4)C2)C3)c1=O [Compound I-121, (S)-N1-ethyl-N6-(1-(2-(3,5-dimethyladamantane-1-amino)-2-oxoethyl)-2-oxo-1,2-dihydropyridin-3-yl)-5-(nicotinamido)-2-oxohexanediamide] | – | – | < 150 | < 1 | < 1 |
| CCNC(=O)C(=O)CC[C@H](NC(=O)C1CCc2ccccc2C1)C(=O)Nc1cccn(CC(=O)NC2C3CC4CC2CC(C(=O)N(C)C)(C4)C3)c1=O (stereo partly drawn) [Compound I-93, (5S)-N1-ethyl-N6-(1-(2-(4-aminoadamantane-N,N-dimethyl-1-carboxamide)-2-oxoethyl)-2-oxo-1,2-dihydropyridin-3-yl)-2-oxo-5-(1,2,3,4-tetrahydronaphthalene-2-carboxamido)hexanediamide] | – | – | 150 to 600 | < 1 | < 1 |
| CCNC(=O)C(=O)CC[C@H](NC(=O)c1snnc1CO)C(=O)Nc1cccn(CC2C3CC4CC(C3)CC2C4)c1=O (stereo partly drawn) [Compound I-84, (S)-N1-(1-(2-adamantylmethyl)-2-oxo-1,2-dihydropyridin-3-yl)-N6-ethyl-2-(4-(hydroxymethyl)-1,2,3-thiadiazole-5-carboxamido)-5-oxohexanediamide] | – | – | 150 to 600 | 1 to 3 | < 1 |
| CCOC(=O)/C=C/CC[C@H](NC(=O)c1cccnc1)C(=O)Nc1ccc(C)n(CC(=O)NCCc2ccccc2)c1=O [Ref. 3, reference compound] | – | 4270 | 3500 to 10000 | 1 to 3 | < 1 |
| CCNC(=O)C(=O)CC[C@H](NC(=O)c1cncn1C)C(=O)Nc1cccn(CC(=O)NC23CC4(C)CC(C)(CC(C)(C4)C2)C3)c1=O [Compound I-28, (S)-N1-ethyl-N6-(1-(2-(3,5,7-trimethyl-1-adamantylamino)-2-oxoethyl)-2-oxo-1,2-dihydropyridin-3-yl)-5-(1-methyl-1H-imidazole-5-carboxamido)-2-oxohexanediamide] | – | – | < 150 | 1 to 3 | < 1 |
| CCNC(=O)C(=O)CC[C@H](NC(=O)c1cnc(C)n1C)C(=O)Nc1cccn(CC(=O)NC23CC4CC(CC(C)(C4)C2)C3)c1=O [Compound I-27, (S)-2-(1,2-dimethyl-1H-imidazole-5-carboxamido)-N6-ethyl-N1-(1-(2-(3-methyladamantane-1-amino)-2-oxoethyl)-2-oxo-1,2-dihydropyridin-3-yl)-5-oxohexanediamide] | – | – | 600 to 3500 | 1 to 3 | < 1 |
| CCNC(=O)C(=O)CC[C@H](NC(=O)c1cn(C2CCCC2)cn1)C(=O)Nc1cccn(CC(=O)NC23CC4CC(CC(CC)(C4)C2)C3)c1=O [Compound I-19, (S)-2-(1-cyclopentyl-1H-imidazole-4-carboxamido)-N6-ethyl-N1-(1-(2-(3-ethyladamantane-1-amino)-2-oxoethyl)-2-oxo-1,2-dihydropyridin-3-yl)-5-oxohexanediamide] | – | – | 600 to 3500 | 3 to 5 | < 1 |
| CCNC(=O)C(=O)CC[C@H](NC(=O)c1cncn1C)C(=O)Nc1cccn(CC(=O)NC23CC4CC(CC(CC)(C4)C2)C3)c1=O [Compound I-5, (S)-N1-ethyl-N6-(1-(2-(3-ethyladamantane-1-amino)-2-oxoethyl)-2-oxo-1,2-dihydropyridin-3-yl)-5-(1-methyl-1H-imidazole-5-carboxamido)-2-oxohexanediamide] | – | – | 150 to 600 | 1 to 3 | < 1 |
